assay: Lethal dose (LD50) of free macrocyclic chelates, excipients X[X',L] and Gd chelates, table 1 of U.S. Pat. No. 7,385,041; conditions: times better LD50 than free DOTA

SMILES	LD50 of Na2[Ca-DOTA] relative to free DOTA
O=C([O-])CN1CCN(CC(=O)[O-])CCN(CC(=O)[O-])CCN(CC(=O)[O-])CC1.[Ca+2].[Na+].[Na+] [Na2 [Ca-DOTA]]	at least 40 times

assay: not given; conditions: values from table 1 of U.S. Pat. No. 7,385,041; cited from earlier work

SMILES	Letal dose (LD 50) [mmol/kg]
O=C([O-])CN1CCNCCN(CC(=O)[O-])CCN(CC(=O)[O-])CC1.O=C([O-])CN1CCNCCN(CC(=O)[O-])CCN(CC(=O)[O-])CC1.[Ca+2].[Ca+2].[Ca+2] [Ca[Ca-DO3A]2.]	1.6
CC(O)CN1CCN(CC(=O)[O-])CCN(CC(=O)[O-])CCN(CC(=O)[O-])CC1.CC(O)CN1CCN(CC(=O)[O-])CCN(CC(=O)[O-])CCN(CC(=O)[O-])CC1.[Ca+2].[Ca+2].[Ca+2] (stereo not drawn) [Ca[Ca-HPDO3A]2]	1.3
O=C(O)CN1CCNCCN(CC(=O)O)CCN(CC(=O)O)CC1 [DO3A]	0.12
O=C(O)CN1CCN(CC(=O)O)CCN(CC(=O)O)CCN(CC(=O)O)CC1 [DOTA, 1,4,7,10-Tetraazacyclododecane-N,N′,N″,N″′-tetraacetic acid]	0.18
O=C([O-])CN1CCN(CC(=O)[O-])CCN(CC(=O)O)CCN(CC(=O)[O-])CC1.[Gd+3] [DOTA-Gd]	14
CC(O)CN1CCN(CC(=O)[O-])CCN(CC(=O)[O-])CCN(CC(=O)[O-])CC1.[Gd+3] (stereo not drawn) [HP-DO3A-Gd]	12
CC(O)CN1CCN(CC(=O)O)CCN(CC(=O)O)CCN(CC(=O)O)CC1 (stereo not drawn) [HP-DO3A]	0.11
O=C([O-])CN1CCN(CC(=O)[O-])CCN(CC(=O)[O-])CCN(CC(=O)[O-])CC1.[Ca+2].[Na+].[Na+] [Na2 [Ca-DOTA]]	>7
